Reference: patent US20230321287A1, “RADIOLABELLED GRPR-ANTAGONIST FOR USE AS THERAGNOSTIC” (NOVARTIS AG, priority 2019, published 2023)

Columns and labels:
[1] = maximum injected activity of 250 MBq
GRPR [2] = biological target: T1, GRPR (Homo sapiens, UniProt P30550); experiment: lesion-level analysis, [68Ga]-NeoB PET versus conventional imaging; type: in vivo; design: from tissue; host or cells: tumour lesions in patients (breast, prostate, colorectal, NSCL, SCL cancer), in vivo
Protocol: PET/CT or PET/MRI imaging is performed after the compound 1 administration ideally at 2 h 30 min ±30 min.
The spleen is the reference region to assess pathological [68Ga]-NeoB uptake.
NeoB in patients with malignancies known to overexpress GRPR.
Target sequence in this assay (P30550 whole entry): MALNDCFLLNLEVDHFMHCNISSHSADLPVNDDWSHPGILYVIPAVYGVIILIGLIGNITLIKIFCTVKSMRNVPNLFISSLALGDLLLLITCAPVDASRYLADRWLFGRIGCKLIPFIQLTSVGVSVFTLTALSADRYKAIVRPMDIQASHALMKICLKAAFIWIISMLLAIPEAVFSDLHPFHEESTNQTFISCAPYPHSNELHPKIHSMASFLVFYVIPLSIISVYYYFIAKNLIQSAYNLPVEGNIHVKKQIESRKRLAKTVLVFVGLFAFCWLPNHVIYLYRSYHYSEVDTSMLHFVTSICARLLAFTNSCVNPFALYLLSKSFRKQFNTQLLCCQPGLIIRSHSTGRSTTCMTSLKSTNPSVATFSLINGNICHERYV

GRPR [3] = biological target: T1, GRPR; settings: non-clinical models; cited from earlier work
Target sequence in this assay (P30550 whole entry, species assumed): as the sequence (P30550 whole entry) above

[4] = 6 patients with GIST; cited from earlier work

For `CC(C)CC(CC(C)C)NC(=O)[C@H](Cc1cnc[nH]1)NC(=O)CNC(=O)[C@@H](NC(=O)[C@H](C)NC(=O)[C@H](Cc1c[nH]c2ccccc12)NC(=O)[C@H](CCC(N)=O)NC(=O)[C@@H](Cc1ccccc1)NC(=O)COCC(=O)Nc1ccc(CNC(=O)CN2CCN(CC(=O)O)CCN(CC(=O)O)CCN(CC(=O)O)CC2)cc1)C(C)C` [[68Ga]-NeoB, metal not drawn], the “estimated effective dose per exam” value [1] was 7.25 mSv, the Number of lesions (GRPR [2]; Breast N=5, [68Ga]-NeoB Negative, conventional imaging Positive) was 44 and the Number of lesions (GRPR [2]; Breast N=5, [68Ga]-NeoB Negative, conventional imaging Total) was 44. For the same compound, the Number of lesions (GRPR [2]; Breast N=5, [68Ga]-NeoB Positive, conventional imaging Negative) was 37, the Number of lesions (GRPR [2]; Breast N=5, [68Ga]-NeoB Positive, conventional imaging Positive) was 48 and the Number of lesions (GRPR [2]; Breast N=5, [68Ga]-NeoB Positive, conventional imaging Total) was 85. The Number of lesions (GRPR [2]; Breast N=5, [68Ga]-NeoB Total, conventional imaging Negative) was 37, the Number of lesions (GRPR [2]; Breast N=5, [68Ga]-NeoB Total, conventional imaging Positive) was 92 and the Number of lesions (GRPR [2]; Breast N=5, [68Ga]-NeoB Total, conventional imaging Total) was 129. The “lesions identified by conventional imaging also identified by [68Ga]-NeoB” value (shortened to “lesions identified”) (GRPR [2]; Breast cancer N=5) was 52.2%, the Number of lesions (GRPR [2]; Colorectal N=5, [68Ga]-NeoB Negative, conventional imaging Positive) was 43 and the Number of lesions (GRPR [2]; Colorectal N=5, [68Ga]-NeoB Negative, conventional imaging Total) was 43. It also gave a Number of lesions (GRPR [2]; Colorectal N=5, [68Ga]-NeoB Positive, conventional imaging Negative) of 0, a Number of lesions (GRPR [2]; Colorectal N=5, [68Ga]-NeoB Positive, conventional imaging Positive) of 18 and a Number of lesions (GRPR [2]; Colorectal N=5, [68Ga]-NeoB Positive, conventional imaging Total) of 18. It also gave a Number of lesions (GRPR [2]; Colorectal N=5, [68Ga]-NeoB Total, conventional imaging Negative) of 0, a Number of lesions (GRPR [2]; Colorectal N=5, [68Ga]-NeoB Total, conventional imaging Positive) of 61 and a Number of lesions (GRPR [2]; Colorectal N=5, [68Ga]-NeoB Total, conventional imaging Total) of 61. The “lesions identified” value (GRPR [2]; Colorectal cancer N=5) was 29.5%, the Number of lesions (GRPR [2]; NSCL N=3, [68Ga]-NeoB Negative, conventional imaging Positive) was 20 and the Number of lesions (GRPR [2]; NSCL N=3, [68Ga]-NeoB Negative, conventional imaging Total) was 20. For the same compound, the Number of lesions (GRPR [2]; NSCL N=3, [68Ga]-NeoB Positive, conventional imaging Negative) was 0, the Number of lesions (GRPR [2]; NSCL N=3, [68Ga]-NeoB Positive, conventional imaging Positive) was 10 and the Number of lesions (GRPR [2]; NSCL N=3, [68Ga]-NeoB Positive, conventional imaging Total) was 10. It also gave a Number of lesions (GRPR [2]; NSCL N=3, [68Ga]-NeoB Total, conventional imaging Negative) of 0, a Number of lesions (GRPR [2]; NSCL N=3, [68Ga]-NeoB Total, conventional imaging Positive) of 30 and a Number of lesions (GRPR [2]; NSCL N=3, [68Ga]-NeoB Total, conventional imaging Total) of 30. For the same compound, the “lesions identified” value (GRPR [2]; NSCL cancer N=3) was 33.3%, the Number of lesions (GRPR [2]; Prostate N=5, [68Ga]-NeoB Negative, conventional imaging Positive) was 59 and the Number of lesions (GRPR [2]; Prostate N=5, [68Ga]-NeoB Negative, conventional imaging Total) was 59. The Number of lesions (GRPR [2]; Prostate N=5, [68Ga]-NeoB Positive, conventional imaging Negative) was 1, the Number of lesions (GRPR [2]; Prostate N=5, [68Ga]-NeoB Positive, conventional imaging Positive) was 10 and the Number of lesions (GRPR [2]; Prostate N=5, [68Ga]-NeoB Positive, conventional imaging Total) was 11. The Number of lesions (GRPR [2]; Prostate N=5, [68Ga]-NeoB Total, conventional imaging Negative) was 1, the Number of lesions (GRPR [2]; Prostate N=5, [68Ga]-NeoB Total, conventional imaging Positive) was 69 and the Number of lesions (GRPR [2]; Prostate N=5, [68Ga]-NeoB Total, conventional imaging Total) was 70. For the same compound, the “lesions identified” value (GRPR [2]; Prostate cancer N=5) was 14.5%, the Number of lesions (GRPR [2]; SCL N=1, [68Ga]-NeoB Negative, conventional imaging Positive) was 1 and the Number of lesions (GRPR [2]; SCL N=1, [68Ga]-NeoB Negative, conventional imaging Total) was 1. It also gave a Number of lesions (GRPR [2]; SCL N=1, [68Ga]-NeoB Positive, conventional imaging Negative) of 0, a Number of lesions (GRPR [2]; SCL N=1, [68Ga]-NeoB Positive, conventional imaging Positive) of 1 and a Number of lesions (GRPR [2]; SCL N=1, [68Ga]-NeoB Positive, conventional imaging Total) of 1. For the same compound, the Number of lesions (GRPR [2]; SCL N=1, [68Ga]-NeoB Total, conventional imaging Negative) was 0, the Number of lesions (GRPR [2]; SCL N=1, [68Ga]-NeoB Total, conventional imaging Positive) was 2 and the Number of lesions (GRPR [2]; SCL N=1, [68Ga]-NeoB Total, conventional imaging Total) was 2. The “lesions identified” value (GRPR [2]; SCL cancer N=1) was 50%, the Number of lesions (GRPR [2]; overall cancer N=19, Nodal, [68Ga]-NeoB Negative, conventional imaging Positive) was 36 and the Number of lesions (GRPR [2]; overall cancer N=19, Nodal, [68Ga]-NeoB Negative, conventional imaging Total) was 36. For the same compound, the Number of lesions (GRPR [2]; overall cancer N=19, Nodal, [68Ga]-NeoB Positive, conventional imaging Negative) was 1, the Number of lesions (GRPR [2]; overall cancer N=19, Nodal, [68Ga]-NeoB Positive, conventional imaging Positive) was 18 and the Number of lesions (GRPR [2]; overall cancer N=19, Nodal, [68Ga]-NeoB Positive, conventional imaging Total) was 19. The Number of lesions (GRPR [2]; overall cancer N=19, Nodal, [68Ga]-NeoB Total, conventional imaging Negative) was 1, the Number of lesions (GRPR [2]; overall cancer N=19, Nodal, [68Ga]-NeoB Total, conventional imaging Positive) was 54 and the Number of lesions (GRPR [2]; overall cancer N=19, Nodal, [68Ga]-NeoB Total, conventional imaging Total) was 55. For the same compound, the Number of lesions (GRPR [2]; overall cancer N=19, Overall, [68Ga]-NeoB Negative, conventional imaging Positive) was 167, the Number of lesions (GRPR [2]; overall cancer N=19, Overall, [68Ga]-NeoB Negative, conventional imaging Total) was 167 and the Number of lesions (GRPR [2]; overall cancer N=19, Overall, [68Ga]-NeoB Positive, conventional imaging Negative) was 38. The Number of lesions (GRPR [2]; overall cancer N=19, Overall, [68Ga]-NeoB Positive, conventional imaging Positive) was 87, the Number of lesions (GRPR [2]; overall cancer N=19, Overall, [68Ga]-NeoB Positive, conventional imaging Total) was 125 and the Number of lesions (GRPR [2]; overall cancer N=19, Overall, [68Ga]-NeoB Total, conventional imaging Negative) was 38. It also gave a Number of lesions (GRPR [2]; overall cancer N=19, Overall, [68Ga]-NeoB Total, conventional imaging Positive) of 254, a Number of lesions (GRPR [2]; overall cancer N=19, Overall, [68Ga]-NeoB Total, conventional imaging Total) of 292 and a Number of lesions (GRPR [2]; overall cancer N=19, Skeletal, [68Ga]-NeoB Negative, conventional imaging Positive) of 85. For the same compound, the Number of lesions (GRPR [2]; overall cancer N=19, Skeletal, [68Ga]-NeoB Negative, conventional imaging Total) was 85, the Number of lesions (GRPR [2]; overall cancer N=19, Skeletal, [68Ga]-NeoB Positive, conventional imaging Negative) was 12 and the Number of lesions (GRPR [2]; overall cancer N=19, Skeletal, [68Ga]-NeoB Positive, conventional imaging Positive) was 17. For the same compound, the Number of lesions (GRPR [2]; overall cancer N=19, Skeletal, [68Ga]-NeoB Positive, conventional imaging Total) was 29, the Number of lesions (GRPR [2]; overall cancer N=19, Skeletal, [68Ga]-NeoB Total, conventional imaging Negative) was 12 and the Number of lesions (GRPR [2]; overall cancer N=19, Skeletal, [68Ga]-NeoB Total, conventional imaging Positive) was 102. It also gave a Number of lesions (GRPR [2]; overall cancer N=19, Skeletal, [68Ga]-NeoB Total, conventional imaging Total) of 114, a Number of lesions (GRPR [2]; overall cancer N=19, Skin/Superficial, [68Ga]-NeoB Negative, conventional imaging Positive) of 1 and a Number of lesions (GRPR [2]; overall cancer N=19, Skin/Superficial, [68Ga]-NeoB Negative, conventional imaging Total) of 1. It also gave a Number of lesions (GRPR [2]; overall cancer N=19, Skin/Superficial, [68Ga]-NeoB Positive, conventional imaging Negative) of 0, a Number of lesions (GRPR [2]; overall cancer N=19, Skin/Superficial, [68Ga]-NeoB Positive, conventional imaging Positive) of 2 and a Number of lesions (GRPR [2]; overall cancer N=19, Skin/Superficial, [68Ga]-NeoB Positive, conventional imaging Total) of 2. The Number of lesions (GRPR [2]; overall cancer N=19, Skin/Superficial, [68Ga]-NeoB Total, conventional imaging Negative) was 0, the Number of lesions (GRPR [2]; overall cancer N=19, Skin/Superficial, [68Ga]-NeoB Total, conventional imaging Positive) was 3 and the Number of lesions (GRPR [2]; overall cancer N=19, Skin/Superficial, [68Ga]-NeoB Total, conventional imaging Total) was 3. For the same compound, the Number of lesions (GRPR [2]; overall cancer N=19, Soft Tissus/Visceral, [68Ga]-NeoB Negative, conventional imaging Positive) was 45, the Number of lesions (GRPR [2]; overall cancer N=19, Soft Tissus/Visceral, [68Ga]-NeoB Negative, conventional imaging Total) was 45 and the Number of lesions (GRPR [2]; overall cancer N=19, Soft Tissus/Visceral, [68Ga]-NeoB Positive, conventional imaging Negative) was 25. It also gave a Number of lesions (GRPR [2]; overall cancer N=19, Soft Tissus/Visceral, [68Ga]-NeoB Positive, conventional imaging Positive) of 50, a Number of lesions (GRPR [2]; overall cancer N=19, Soft Tissus/Visceral, [68Ga]-NeoB Positive, conventional imaging Total) of 75 and a Number of lesions (GRPR [2]; overall cancer N=19, Soft Tissus/Visceral, [68Ga]-NeoB Total, conventional imaging Negative) of 25. The Number of lesions (GRPR [2]; overall cancer N=19, Soft Tissus/Visceral, [68Ga]-NeoB Total, conventional imaging Positive) was 95, the Number of lesions (GRPR [2]; overall cancer N=19, Soft Tissus/Visceral, [68Ga]-NeoB Total, conventional imaging Total) was 120 and the “lesions identified” value (GRPR [2]; regardless the cancer type, N=19) was 34.3%. The “lesions identified” value (GRPR [2]; soft tissue and visceral tissue regardless the cancer type) was 52.6%, the “internalization upon binding to the specific receptor” value (GRPR [3]) was “low degree of internalization” and the “effective dose, mean” value [4] was 0.029 ± 0.06 mSv/MBq.
